Where a name gives a salt, the structure may show the parent alone.
Key:
[1] = system: cGVHD; conditions: in vivo; cited from earlier work
[2] = solubility of belumosudil mesylate; format: physicochemical
Method: The tablet film consists of polyvinyl alcohol, polyethylene glycol, talc, titanium dioxide and yellow iron oxide. Each 200 mg tablet is a pale yellow film-coated oblong tablet debossed with “KDM” on one side and “200” on the other side. Tablets are stored at room temperature, 20° C. to 25° C. (68° F. to 77° F.); excursions permitted from 15° C. and 30° C. (59° F. to 86° F.).

Structure (SMILES) | discontinuation rate because of TEAEs [1] | solubility in DMF [2] | solubility in DMSO [2] | solubility in methanol [2] | solubility in water [2]
C=CC(=O)N1CCC[C@@H](n2nc(-c3ccc(Oc4ccccc4)cc3)c3c(N)ncnc32)C1 [ibrutinib] | 43% | – | – | – | –
CC(C)NC(=O)COc1cccc(-c2nc(Nc3ccc4[nH]ncc4c3)c3ccccc3n2)c1 [Belumosudil mesylate, 2-{3-[4-(1H-indazol-5-ylamino)-2-quinazolinyl]phenoxy}-N-(propan-2-yl) acetamide methanesulfonate (1:1)] | – | slightly soluble | soluble | slightly soluble | practically insoluble

Source: patent US20260027116A1, “Methods of Treating Chronic Graft-Versus-Host Disease Following Allogeneic Hematopoietic Stem Cell Transplantation” (Kadmon Corporation, LLC, priority 2022, published 2026)
